From the NIST ThermoML archive (doi:10.1016/j.fluid.2009.08.017)
Numbers after ± are expanded uncertainties.

Assay: activity coefficient (dimensionless); of the first substance listed, at infinite dilution; xn = mol fraction of the nth substance listed
Conditions: 101 kPa, Liquid, Chromatography, x1 = 0

| Structure (SMILES) | activity coefficient (298.15 K) | activity coefficient (308.15 K) | activity coefficient (318.15 K) | activity coefficient (328.15 K) | activity coefficient (338.15 K) | activity coefficient (348.15 K) | activity coefficient (358.15 K) | activity coefficient (368.15 K) |
| --- | --- | --- | --- | --- | --- | --- | --- | --- |
| c1ccccc1 [benzene] + CCCCCCOCn1cc[n+](C)c1.O=S(=O)([N-]S(=O)(=O)C(F)(F)F)C(F)(F)F | 0.802 ± 0.052 | 0.807 ± 0.052 | 0.812 ± 0.053 | 0.816 ± 0.053 | 0.82 ± 0.053 | 0.824 ± 0.053 | 0.827 ± 0.053 | 0.832 ± 0.054 |
| C1CCCC1 [cyclopentane] + CCCCCCOCn1cc[n+](COCCCCCC)c1.O=S(=O)([N-]S(=O)(=O)C(F)(F)F)C(F)(F)F | 1.84 ± 0.12 | 1.78 ± 0.12 | 1.74 ± 0.12 | 1.69 ± 0.11 | 1.65 ± 0.11 | 1.61 ± 0.11 | 1.57 ± 0.1 | 1.54 ± 0.1 |
| CCO [ethanol] + CCCCCCOCn1cc[n+](C)c1.O=S(=O)([N-]S(=O)(=O)C(F)(F)F)C(F)(F)F | 1.59 ± 0.11 | 1.44 ± 0.09 | 1.31 ± 0.09 | 1.2 ± 0.08 | 1.1 ± 0.07 | 1.03 ± 0.06 | 0.952 ± 0.06 | 0.891 ± 0.057 |
| CO [methanol] + CCCCCCOCn1cc[n+](C)c1.O=S(=O)([N-]S(=O)(=O)C(F)(F)F)C(F)(F)F | 1.36 ± 0.09 | 1.24 ± 0.08 | 1.13 ± 0.07 | 1.04 ± 0.07 | 0.959 ± 0.06 | 0.894 ± 0.057 | 0.832 ± 0.054 | 0.775 ± 0.051 |
| CCOCC [diethyl ether] + CCCCCCOCn1cc[n+](C)c1.O=S(=O)([N-]S(=O)(=O)C(F)(F)F)C(F)(F)F | 1.35 ± 0.09 | 1.37 ± 0.09 | 1.38 ± 0.09 | 1.4 ± 0.09 | 1.41 ± 0.09 | 1.43 ± 0.09 | 1.44 ± 0.09 | 1.45 ± 0.1 |
| C=CCCCCCC [oct-1-ene] + CCCCCCOCn1cc[n+](C)c1.O=S(=O)([N-]S(=O)(=O)C(F)(F)F)C(F)(F)F | 7.97 ± 0.54 | 7.67 ± 0.52 | 7.39 ± 0.5 | 7.12 ± 0.49 | 6.89 ± 0.47 | 6.69 ± 0.46 | 6.5 ± 0.44 | 6.34 ± 0.43 |
| CCCCCCC [heptane] + CCCCCCOCn1cc[n+](COCCCCCC)c1.O=S(=O)([N-]S(=O)(=O)C(F)(F)F)C(F)(F)F | 3.94 ± 0.27 | 3.81 ± 0.26 | 3.68 ± 0.25 | 3.57 ± 0.24 | 3.46 ± 0.24 | 3.36 ± 0.23 | 3.27 ± 0.22 | 3.19 ± 0.22 |
| CCCCCCCC [octane] + CCCCCCOCn1cc[n+](COCCCCCC)c1.O=S(=O)([N-]S(=O)(=O)C(F)(F)F)C(F)(F)F | 4.8 ± 0.33 | 4.62 ± 0.31 | 4.45 ± 0.3 | 4.3 ± 0.29 | 4.16 ± 0.28 | 4.03 ± 0.27 | 3.92 ± 0.27 | 3.81 ± 0.26 |
| C1CCCCCCC1 [cyclooctane] + CCCCCCOCn1cc[n+](COCCCCCC)c1.O=S(=O)([N-]S(=O)(=O)C(F)(F)F)C(F)(F)F | 3.2 ± 0.22 | 3.06 ± 0.21 | 2.94 ± 0.2 | 2.82 ± 0.19 | 2.72 ± 0.19 | 2.63 ± 0.18 | 2.54 ± 0.17 | 2.47 ± 0.17 |
| C=CCCC [1-pentene] + CCCCCCOCn1cc[n+](COCCCCCC)c1.O=S(=O)([N-]S(=O)(=O)C(F)(F)F)C(F)(F)F | 1.9 ± 0.13 | 1.87 ± 0.13 | 1.83 ± 0.12 | 1.8 ± 0.12 | 1.77 ± 0.12 | 1.75 ± 0.12 | 1.72 ± 0.12 | 1.7 ± 0.11 |
| C#CCCCCCC [1-octyne] + CCCCCCOCn1cc[n+](COCCCCCC)c1.O=S(=O)([N-]S(=O)(=O)C(F)(F)F)C(F)(F)F | 1.65 ± 0.11 | 1.66 ± 0.11 | 1.66 ± 0.11 | 1.66 ± 0.11 | 1.67 ± 0.11 | 1.67 ± 0.11 | 1.67 ± 0.11 | 1.67 ± 0.11 |
| CCCCC [pentane] + CCCCCCOCn1cc[n+](COCCCCCC)c1.O=S(=O)([N-]S(=O)(=O)C(F)(F)F)C(F)(F)F | 2.78 ± 0.19 | 2.69 ± 0.18 | 2.62 ± 0.18 | 2.54 ± 0.17 | 2.48 ± 0.17 | 2.43 ± 0.17 | 2.38 ± 0.16 | 2.33 ± 0.16 |
| CC(C)=O [acetone] + CCCCCCOCn1cc[n+](COCCCCCC)c1.O=S(=O)([N-]S(=O)(=O)C(F)(F)F)C(F)(F)F | 0.262 ± 0.03 | 0.267 ± 0.03 | 0.272 ± 0.03 | 0.277 ± 0.03 | 0.281 ± 0.03 | 0.286 ± 0.031 | 0.29 ± 0.031 | 0.294 ± 0.031 |
| C#CCCCC [1-hexyne] + CCCCCCOCn1cc[n+](C)c1.O=S(=O)([N-]S(=O)(=O)C(F)(F)F)C(F)(F)F | 1.93 ± 0.13 | 1.94 ± 0.13 | 1.95 ± 0.13 | 1.96 ± 0.13 | 1.97 ± 0.13 | 1.98 ± 0.13 | 1.98 ± 0.13 | 1.99 ± 0.14 |
| C=CCCC [1-pentene] + CCCCCCOCn1cc[n+](C)c1.O=S(=O)([N-]S(=O)(=O)C(F)(F)F)C(F)(F)F | 3.96 ± 0.27 | 3.86 ± 0.26 | 3.77 ± 0.26 | 3.69 ± 0.25 | 3.61 ± 0.25 | 3.53 ± 0.24 | 3.47 ± 0.24 | 3.41 ± 0.23 |
| CCCO [propan-1-ol] + CCCCCCOCn1cc[n+](COCCCCCC)c1.O=S(=O)([N-]S(=O)(=O)C(F)(F)F)C(F)(F)F | 1.31 ± 0.09 | 1.19 ± 0.08 | 1.09 ± 0.07 | 1 ± 0.063 | 0.929 ± 0.059 | 0.861 ± 0.055 | 0.803 ± 0.052 | 0.752 ± 0.049 |
| O [water] + CCCCCCOCn1cc[n+](C)c1.O=S(=O)([N-]S(=O)(=O)C(F)(F)F)C(F)(F)F | 4.37 ± 0.3 | 3.81 ± 0.26 | 3.32 ± 0.23 | 2.9 ± 0.2 | 2.57 ± 0.17 | 2.28 ± 0.16 | 2.04 ± 0.14 |  |
| C1CCCCCCC1 [cyclooctane] + CCCCCCOCn1cc[n+](C)c1.O=S(=O)([N-]S(=O)(=O)C(F)(F)F)C(F)(F)F | 8.12 ± 0.55 | 7.57 ± 0.52 | 7.11 ± 0.48 | 6.74 ± 0.46 | 6.35 ± 0.43 | 6.06 ± 0.41 | 5.75 ± 0.39 | 5.48 ± 0.37 |
